# Entries after “also recorded” stand apart in the source; their conditions may differ. Like-named read-outs stand apart in the source and are kept apart here.
# Legend:
# [1] = test system: NF-κB; assay: Measurement of NF-κB activation using THP1-Blue NF-κB cells (SEAP); format: cell-based; settings: 20 h, two point normalized, compound 1 as 200%
# [2] = test system: NF-κB; assay: cell-based NF-κB FRET assay
# Source text: Site A was assigned the 4-substituent of thiazole ring, site B was the thiazole ring itself, site C was the central amide bond in the structure, site D was the benzene ring bearing 1,4-carboxyl and sulfamoyl group, site E was the sulfonamide functional group and site F was the amide substituent on the sulfamoyl group.
# [3] = test system: THP-1 cells; assay: Cell viability assay (MTT); format: cell-based; settings: compound 5 μM alone, 18 h, normalized to DMSO as 100%
# How it was run: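 THP-1 cells in RPMI/10% FBS got compound at a final 5 μM (0.05% DMSO) for 18 h. MTT (0.5 mg/mL) was then added for 4 to 6 h, followed by SDS/HCl lysis overnight. Absorbance was read at 570 nm against 650 nm reference.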
# [4] = test system: BMDCs; assay: Cytokine production in BMDCs; format: cell-based; settings: for cytokine production (mIL-12, mIL-6, mTNFalpha) induced by Dectin1: with Dectin1 (FIGS. 4A-4C)
# [5] = test system: BMDCs; assay: Co-stimulatory marker expression in BMDCs; format: cell-based; settings: for Co-stimulatory markers: CD40 and CD86 induce by LPS or MPLA: BMDCs
# [6] = test system: THP-1 cells; assay: Co-stimulatory marker expression in THP-1 cells; format: cell-based
# [7] = test system: BMDCs; assay: Gene expression in BMDCs; format: cell-based
# [8] = test system: THP-1 cells; assay: RNA seq in THP-1 cells; format: cell-based
# [9] = test system: BMDCs; assay: Cytotoxicity / cell viability of BMDCs; format: cell-based
# [10] = test system: NF-kB; assay: NF-kB phosphorylation and nuclear localization in THP-1 cells (ICC and WB); format: cell-based
# [11] = test system: JNK, P38 and Erk1/2; assay: MAPK activation in THP-1 cells; format: cell-based; settings: #42 alone
# [12] = Reactogenicity (FIG. 21)
smiles,measurement,setting,value
"Cc1ccc(C)c(-c2csc(NC(=O)c3ccc(S(=O)(=O)N4CCCCC4)cc3)n2)c1 [Compound 1, N-(4-(2,5-dimethylphenyl)thiazol-2-yl)-4-(piperidin-1-ylsulfonyl)benzamide]",activity at 5 µM,"[1]; compound 5 μM + LPS, LPS (10 ng/mL) as 100%, read-out: NF-κB SEAP Compound + LPS % Activation",200%
same,activity at 5 µM,"[1]; compound 5 μM alone, LPS or DMSO as 100%, read-out: NF-κB SEAP Compound alone % Activation",200%
same,NF-κB FRET Compound + LPS % Activation,"[2]; compound + LPS, two point normalized, compound 1 as 200%, LPS (10 ng/mL) as 100%",200.00%
same,enhancement of NF-κB activity by LPS at 12 h (confirmatory kinetic screening),"[2]; in presence of LPS, 12 h incubation",most potent
same,MTT Compound alone % Viability,[3],102.81%
same,"cytokine production (mIL-12, mIL-6, mTNFalpha) induced by Dectin1",[4]; listed as 42,not enhanced; also recorded: not by Dectin1
same,"cytokine production (mIL-12, mIL-6, mTNFalpha) induced by Dectin1",[4]; listed as #42,not by Dectin1
same,cytokine production induced by TLR ligands,[4]; with a TLR ligand (FIGS. 3-4),enhanced
same,co-stimulatory molecule expression induced by LPS,"[5]; BDMCs, LPS (FIGS. 5A-5G)",enhances
same,co-stimulatory molecule expression induced by MPLA,"[5]; BDMCs, MPLA (FIGS. 6A-6F)",enhances
same,Co-stimulatory markers: CD40 and CD86 induce by LPS or MPLA,[5]; listed as 42,enhanced
same,Co-stimulatory markers: CD40 and CD86 induce by LPS or MPLA,[5]; listed as #42,enhanced; also recorded: Enhancement of CD40 and CD86
same,Co-stimulatory markers: CD40 and CD86 induce by LPS,[6],Enhancement of CD40 and CD86
same,"Gene expression: CD40, IL-12. CXCL5 expression",[7]; BMDCs,"Enhancement of CD40, IL-12."
same,"CD40, CXCL10 and IL-12 gene expression kinetics","[7]; by 10 hours after exposure, BDMCs, LPS and compound 42 (FIG. 7)",upregulated
same,RNA seq,[8],Induction of CSF-1 and LIF
same,Cytotoxicity,[9],Enhancement of cell viability
same,"phosphorylation of NFkB, combination of LPS and compound",[10]; LPS + compound 42,synergistic
same,NF-kB phosphorylation and nuclear localization induced by LPS (ICC and WB),"[10]; THP-1 cells, with LPS, listed as #42",prolonged; also recorded: Prolongation of NF-kB
same,phosphorylation of NF-kB by compound alone,[10]; compound 42 alone (FIGS. 9A-9C),induced and sustained
same,"MAPK activation: phosphorylation of JNK, P38 and Erk1/2",[11]; listed as 42,induced
same,"MAPK activation: phosphorylation of JNK, P38 and Erk1/2",[11]; listed as #42,"phosphorylation of JNK, P38 and Erk1/2"
same,reactogenicity,[12],not reactogenic

# Source: patent US12091393B2, “Small molecule vaccine adjuvant for enhancing or prolonging immune response” (The Regents of the University of California, priority 2018, dated 2024)
